Laboratory results from patent US20190330275A1 (priority 2016, published 2019).
“And” between values parts separate entries of the source, which are not always exact repeats. Equal values may be shown once. “Also recorded” adds a separate entry of the source. Peptide text beside a SMILES is read from it.

Tests used:
[1] = biological target: rat α3β4 nAChR (Rattus norvegicus, UniProt P04757+P12392); experiment: cell-based
[2] = biological target: rat α6/α3β4 nAChR (Rattus norvegicus, UniProt P04757+P12392+P43143); experiment: cell-based
rat α6/α3β4 nAChR, sequence (P04757 whole entry, looked up): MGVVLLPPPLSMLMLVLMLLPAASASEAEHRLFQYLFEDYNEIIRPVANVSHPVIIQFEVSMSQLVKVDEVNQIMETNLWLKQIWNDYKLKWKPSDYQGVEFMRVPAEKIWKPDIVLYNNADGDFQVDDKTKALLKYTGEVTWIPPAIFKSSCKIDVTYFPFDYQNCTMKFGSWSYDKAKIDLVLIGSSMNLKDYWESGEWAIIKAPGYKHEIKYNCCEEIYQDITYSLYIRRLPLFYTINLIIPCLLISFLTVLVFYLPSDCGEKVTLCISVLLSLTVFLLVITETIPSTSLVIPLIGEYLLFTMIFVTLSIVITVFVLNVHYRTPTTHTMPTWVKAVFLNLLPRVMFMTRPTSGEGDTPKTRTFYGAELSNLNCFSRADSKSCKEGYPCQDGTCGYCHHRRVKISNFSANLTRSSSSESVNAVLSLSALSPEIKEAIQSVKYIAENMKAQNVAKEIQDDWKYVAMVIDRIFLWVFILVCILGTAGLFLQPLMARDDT
rat α6/α3β4 nAChR, sequence (P12392 whole entry, looked up): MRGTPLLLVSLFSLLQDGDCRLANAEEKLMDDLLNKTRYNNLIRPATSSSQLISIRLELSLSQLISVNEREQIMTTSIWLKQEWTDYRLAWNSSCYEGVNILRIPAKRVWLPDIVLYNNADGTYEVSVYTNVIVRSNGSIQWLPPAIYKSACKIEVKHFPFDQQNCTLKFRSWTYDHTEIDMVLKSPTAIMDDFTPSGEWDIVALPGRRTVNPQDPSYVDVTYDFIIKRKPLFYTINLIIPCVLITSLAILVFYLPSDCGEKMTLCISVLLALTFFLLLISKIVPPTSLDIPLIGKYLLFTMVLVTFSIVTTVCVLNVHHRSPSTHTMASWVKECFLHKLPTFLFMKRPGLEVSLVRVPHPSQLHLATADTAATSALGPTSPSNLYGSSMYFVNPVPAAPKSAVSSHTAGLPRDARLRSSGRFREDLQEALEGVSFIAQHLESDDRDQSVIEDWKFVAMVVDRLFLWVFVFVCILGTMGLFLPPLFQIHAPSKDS
rat α6/α3β4 nAChR, sequence (P43143 whole entry, looked up): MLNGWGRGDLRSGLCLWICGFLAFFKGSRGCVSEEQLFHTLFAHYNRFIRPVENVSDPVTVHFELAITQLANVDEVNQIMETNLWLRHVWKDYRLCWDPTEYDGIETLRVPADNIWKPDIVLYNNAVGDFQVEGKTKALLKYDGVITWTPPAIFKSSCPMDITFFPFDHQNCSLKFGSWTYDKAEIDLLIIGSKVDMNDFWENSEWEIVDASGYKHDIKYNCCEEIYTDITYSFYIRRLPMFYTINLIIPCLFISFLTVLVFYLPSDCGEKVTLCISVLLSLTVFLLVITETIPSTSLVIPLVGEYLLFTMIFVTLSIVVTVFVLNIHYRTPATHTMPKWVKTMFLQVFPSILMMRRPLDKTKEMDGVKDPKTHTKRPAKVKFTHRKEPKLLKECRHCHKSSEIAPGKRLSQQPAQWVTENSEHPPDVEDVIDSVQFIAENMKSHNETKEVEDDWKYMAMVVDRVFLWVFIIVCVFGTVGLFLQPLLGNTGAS

[3] = α6/α3β4 IC50 (half-blocking dose)

rat α3β4 nAChR, sequence (P04757 26-499 limits assumed): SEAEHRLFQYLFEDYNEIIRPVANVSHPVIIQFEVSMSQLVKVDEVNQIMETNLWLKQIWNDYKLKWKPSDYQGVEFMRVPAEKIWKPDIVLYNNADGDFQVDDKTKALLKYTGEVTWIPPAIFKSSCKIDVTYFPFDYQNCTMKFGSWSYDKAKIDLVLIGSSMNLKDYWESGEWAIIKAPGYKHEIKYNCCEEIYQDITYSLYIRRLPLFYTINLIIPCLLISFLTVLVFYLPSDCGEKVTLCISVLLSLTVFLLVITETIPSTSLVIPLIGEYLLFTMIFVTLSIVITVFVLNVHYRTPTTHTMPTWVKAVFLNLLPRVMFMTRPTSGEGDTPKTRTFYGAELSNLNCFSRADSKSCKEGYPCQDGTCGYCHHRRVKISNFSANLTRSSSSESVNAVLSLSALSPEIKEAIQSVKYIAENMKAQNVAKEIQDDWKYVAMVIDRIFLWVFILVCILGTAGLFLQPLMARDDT
rat α3β4 nAChR, sequence (P12392 21-495 limits assumed): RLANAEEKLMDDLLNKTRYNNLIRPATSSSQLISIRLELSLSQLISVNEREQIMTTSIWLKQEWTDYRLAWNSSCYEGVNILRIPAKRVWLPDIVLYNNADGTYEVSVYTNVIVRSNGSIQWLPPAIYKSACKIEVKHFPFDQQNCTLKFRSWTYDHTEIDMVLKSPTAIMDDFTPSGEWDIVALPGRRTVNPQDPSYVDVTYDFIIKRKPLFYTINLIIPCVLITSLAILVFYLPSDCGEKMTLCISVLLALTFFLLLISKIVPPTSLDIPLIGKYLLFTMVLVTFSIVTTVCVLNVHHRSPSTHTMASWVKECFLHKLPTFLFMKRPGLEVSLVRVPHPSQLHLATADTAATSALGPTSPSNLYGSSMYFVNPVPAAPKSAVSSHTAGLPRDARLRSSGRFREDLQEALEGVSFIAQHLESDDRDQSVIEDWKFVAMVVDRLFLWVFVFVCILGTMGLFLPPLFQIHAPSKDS

Compound: CC[C@H](C)[C@@H]1NC(=O)[C@@H]2CCCN2C(=O)[C@H](CO)NC(=O)[C@H](CCSC)NC(=O)[C@H](C)NC(=O)[C@H](C)NC(=O)[C@@H]2CSSC[C@H](NC(=O)CN)C(=O)N[C@@H](CSSC[C@@H](C(N)=O)NC1=O)C(=O)N[C@@H](CO)C(=O)N[C@@H](Cc1c[nH]cn1)C(=O)N1CCC[C@H]1C(=O)N[C@@H](C(C)C)C(=O)N2 [TxID[S9A]] (HELM PEPTIDE1{G.C.C.S.H.P.V.C.A.A.M.S.P.I.C.[am]}$PEPTIDE1,PEPTIDE1,2:R3-8:R3|PEPTIDE1,PEPTIDE1,3:R3-15:R3$$$V2.0)
- binding (blocking) activity to α3β4 nAChR compared with wild type TxID [1]: no effect on the blocking activity
- current blocked [1]: 98% and 75%
- blocking activity to α6β4* nAChRs subtype [2]: completely lost the blocking activity
- current blocked [2]: 26%

Compound: CC[C@@H]1NC(=O)[C@@H]2CSSC[C@H](NC(=O)CN)C(=O)N[C@@H](CSSC[C@@H](C(N)=O)NC(=O)[C@H]([C@@H](C)CC)NC(=O)[C@@H]3CCCN3C(=O)[C@H](CO)NC(=O)[C@H](CCSC)NC(=O)[C@H](C)NC1=O)C(=O)N[C@@H](CO)C(=O)N[C@@H](Cc1c[nH]cn1)C(=O)N1CCC[C@H]1C(=O)N[C@@H](C(C)C)C(=O)N2 [TxID[S9Abu], GCCSHPVCBAMSPIC*] (HELM PEPTIDE1{G.C.C.S.H.P.V.C.[Abu].A.M.S.P.I.C.[am]}$PEPTIDE1,PEPTIDE1,2:R3-8:R3|PEPTIDE1,PEPTIDE1,3:R3-15:R3$$$V2.0)
- binding (blocking) activity to α3β4 nAChR compared with wild type TxID [1]: not significantly different from the activity of the wild type TxID
- elution after blocking the α3β4 nAChR current [1]: very slow
- binding (blocking) activity to α6/α3β4 nAChR compared with wild type TxID [2]: not significantly different from the activity of the wild type TxID

Compound: CC[C@H](C)[C@@H]1NC(=O)[C@@H]2CCCN2C(=O)[C@H](CO)NC(=O)[C@H](CCSC)NC(=O)[C@H](C)NC(=O)[C@H](CCC(=O)O)NC(=O)[C@@H]2CSSC[C@H](NC(=O)CN)C(=O)N[C@@H](CSSC[C@@H](C(N)=O)NC1=O)C(=O)N[C@@H](CO)C(=O)N[C@@H](Cc1c[nH]cn1)C(=O)N1CCC[C@H]1C(=O)N[C@@H](C(C)C)C(=O)N2 [TxID[S9E]] (HELM PEPTIDE1{G.C.C.S.H.P.V.C.E.A.M.S.P.I.C.[am]}$PEPTIDE1,PEPTIDE1,2:R3-8:R3|PEPTIDE1,PEPTIDE1,3:R3-15:R3$$$V2.0)
- binding (blocking) activity to α3β4 nAChR compared with wild type TxID [1]: weak
- binding (blocking) activity to α6/α3β4 nAChR compared with wild type TxID [2]: completely lost; also recorded: completely loses the binding activity
- blocking effect on the current of rat α6/α3β4 nAChRs [2]: no blocking activity; also recorded: no blocking effect

Compound: CC[C@H](C)[C@@H]1NC(=O)[C@@H]2CCCN2C(=O)[C@H](CO)NC(=O)[C@H](CCSC)NC(=O)[C@H](C)NC(=O)[C@H](Cc2ccccc2)NC(=O)[C@@H]2CSSC[C@H](NC(=O)CN)C(=O)N[C@@H](CSSC[C@@H](C(N)=O)NC1=O)C(=O)N[C@@H](CO)C(=O)N[C@@H](Cc1c[nH]cn1)C(=O)N1CCC[C@H]1C(=O)N[C@@H](C(C)C)C(=O)N2 [TxID[S9F]] (HELM PEPTIDE1{G.C.C.S.H.P.V.C.F.A.M.S.P.I.C.[am]}$PEPTIDE1,PEPTIDE1,2:R3-8:R3|PEPTIDE1,PEPTIDE1,3:R3-15:R3$$$V2.0)
- binding (blocking) activity to α3β4 nAChR compared with wild type TxID [1]: not significantly different from the activity of the wild type TxID
- elution after blocking the α3β4 nAChR current [1]: very slow
- α3β4 IC50 ratio [1]: 3.8
- IC50 ratio of α6/α3β4 vs. α3β4 (Discrimination) [2]: 0.5
- binding (blocking) activity to α6/α3β4 nAChR compared with wild type TxID [2]: not significantly different from the activity of the wild type TxID
- elution rate after blocking α6/α3β4 nAChR current [2]: significantly slower than those of other polypeptides
- α6/α3β4 IC50 ratio [2]: 0.2

Compound: CC[C@H](C)[C@@H]1NC(=O)[C@@H]2CCCN2C(=O)[C@H](CO)NC(=O)[C@H](CCSC)NC(=O)[C@H](C)NC(=O)[C@H](Cc2ccccc2)NC(=O)[C@@H]2CSSC[C@H](NC(=O)CN)C(=O)N[C@@H](CSSC[C@@H](C(N)=O)NC1=O)C(=O)N[C@@H](CO)C(=O)N[C@@H](Cc1cnc[nH]1)C(=O)N1CCC[C@H]1C(=O)N[C@@H](C(C)C)C(=O)N2 [TxID[S9F]] (HELM PEPTIDE1{G.C.C.S.H.P.V.C.F.A.M.S.P.I.C.[am]}$PEPTIDE1,PEPTIDE1,2:R3-8:R3|PEPTIDE1,PEPTIDE1,3:R3-15:R3$$$V2.0)
- IC50 ([1]; α3β4 IC50): 10.7 nM
- IC50 ([1]; α3β4 IC50 (half-blocking dose)): 13.9 nM
- IC50 ([2]; α6/α3β4 IC50): 10.2 nM
- IC50 [2, 3]: 7.11 nM

Compound: CC[C@H](C)[C@@H]1NC(=O)[C@@H]2CCCN2C(=O)[C@H](CO)NC(=O)[C@H](CCSC)NC(=O)[C@H](C)NC(=O)[C@H](Cc2c[nH]cn2)NC(=O)[C@@H]2CSSC[C@H](NC(=O)CN)C(=O)N[C@@H](CSSC[C@@H](C(N)=O)NC1=O)C(=O)N[C@@H](CO)C(=O)N[C@@H](Cc1c[nH]cn1)C(=O)N1CCC[C@H]1C(=O)N[C@@H](C(C)C)C(=O)N2 [TxID[S9H]] (HELM PEPTIDE1{G.C.C.S.H.P.V.C.H.A.M.S.P.I.C.[am]}$PEPTIDE1,PEPTIDE1,2:R3-8:R3|PEPTIDE1,PEPTIDE1,3:R3-15:R3$$$V2.0)
- binding (blocking) activity to α3β4 nAChR compared with wild type TxID [1]: not significantly different from the activity of the wild type TxID
- blocking of rat α3β4 nAChRs current [1]: strong blocking activities
- current after 2 min of elution [1]: ~0 nA
- elution after blocking the α3β4 nAChR current [1]: very slow
- α3β4 IC50 ratio [1]: 0.7
- IC50 ratio of α6/α3β4 vs. α3β4 (Discrimination) [2]: 5.6
- binding (blocking) activity to α6/α3β4 nAChR compared with wild type TxID [2]: not significantly different from the activity of the wild type TxID
- α6/α3β4 IC50 ratio [2]: 0.4

Compound: CC[C@H](C)[C@@H]1NC(=O)[C@@H]2CCCN2C(=O)[C@H](CO)NC(=O)[C@H](CCSC)NC(=O)[C@H](C)NC(=O)[C@H](Cc2cnc[nH]2)NC(=O)[C@@H]2CSSC[C@H](NC(=O)CN)C(=O)N[C@@H](CSSC[C@@H](C(N)=O)NC1=O)C(=O)N[C@@H](CO)C(=O)N[C@@H](Cc1cnc[nH]1)C(=O)N1CCC[C@H]1C(=O)N[C@@H](C(C)C)C(=O)N2 [TxID[S9H]] (HELM PEPTIDE1{G.C.C.S.H.P.V.C.H.A.M.S.P.I.C.[am]}$PEPTIDE1,PEPTIDE1,2:R3-8:R3|PEPTIDE1,PEPTIDE1,3:R3-15:R3$$$V2.0)
- IC50 ([1]; α3β4 IC50): 1.96 nM
- IC50 ([1]; α3β4 IC50 (half-blocking dose)): 2.61 nM
- IC50 ([2]; α6/α3β4 IC50): 18.7 nM
- IC50 [2, 3]: 14.7 nM

Compound: CC[C@H](C)[C@@H]1NC(=O)[C@@H]2CCCN2C(=O)[C@H](CO)NC(=O)[C@H](CCSC)NC(=O)[C@H](C)NC(=O)[C@H](CCCCN)NC(=O)[C@@H]2CSSC[C@H](NC(=O)CN)C(=O)N[C@@H](CSSC[C@@H](C(N)=O)NC1=O)C(=O)N[C@@H](CO)C(=O)N[C@@H](Cc1c[nH]cn1)C(=O)N1CCC[C@H]1C(=O)N[C@@H](C(C)C)C(=O)N2 [TxID[S9K]] (HELM PEPTIDE1{G.C.C.S.H.P.V.C.K.A.M.S.P.I.C.[am]}$PEPTIDE1,PEPTIDE1,2:R3-8:R3|PEPTIDE1,PEPTIDE1,3:R3-15:R3$$$V2.0)
- blocking of rat α3β4 nAChRs current [1]: completely blocked
- blocking effect on the current of rat α6/α3β4 nAChRs [2]: no blocking effect
- blocking of α6/α3β4 nAChR current as part of the control current [2]: less than ¼
- current blockade [2]: less than 50%
